Experimental data: patent publication US20060069132A1, “Azolecarboxamide herbicides” (priority 2004, published 2006)

Legend:
Experiment in all cases: Test C postemergence herbicide test
winter barley = format: in vivo, Hordeum vulgare
How it was run: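 After a postemergence application at 1 to 4 leaves (plants 2–18 cm high), or at 2 leaves for barnyardgrass in flooded paddy, plants stayed in the greenhouse for 12 to 14 days. Damage was then judged visually relative to control plants, with 100 indicating complete control.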

canarygrass = format: in vivo, Phalaris minor
How it was run: (§1)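 Plants were grown to the 1- to 4-leaf stage (2–18 cm) and then treated postemergence, or grown to the 2-leaf stage for the flooded paddy test. They were held in a greenhouse for 12 to 14 days and then scored by eye against controls, where 0 is no effect and 100 is complete control.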

green foxtail = format: in vivo, Setaria viridis
How it was run: as §1

Italian ryegrass = format: in vivo, Lolium multiflorum
How it was run: as §1

wild oat = format: in vivo, Avenafatua
How it was run: as §1

windgrass = format: in vivo, Apera spica-venti
How it was run: as §1

[1] = Postemergence, 125 g ai/ha, scale 0 to 100, 0 no effect, 100 complete control
[2] = postemergence, 31 g ai/ha, scale 0 to 100
[3] = postemergence, 62 g ai/ha, scale 0 to 100 (0 no effect, 100 complete control)
[4] = Postemergence, 250 g ai/ha, scale 0 to 100, 0 no effect, 100 complete control
[5] = postemergence, 125 g ai/ha, scale 0 to 100
[6] = postemergence, 62 g ai/ha, scale 0 to 100
[7] = Postemergence, 500 g ai/ha, scale 0 to 100
[8] = Postemergence, 500 g ai/ha, scale 0 to 100, 0 no effect, 100 complete control

| SMILES | Plant response rating, Barley, Winter (winter barley; [1]) | Plant response rating, Barley, Winter (winter barley; [2]) | Plant response rating, Barley, Winter (winter barley; [3]) | Plant response rating, Canarygrass (canarygrass; [4]) | Plant response rating, Canarygrass (canarygrass; [5]) | Plant response rating, Canarygrass (canarygrass; [6]) | Plant response rating, Foxtail, Green (green foxtail; [4]) | Plant response rating, Foxtail, Green (green foxtail; [5]) | Plant response rating, Foxtail, Green (green foxtail; [6]) | Plant response rating, Ryegrass, Italian (Italian ryegrass; [4]) | Plant response rating, Ryegrass, Italian (Italian ryegrass; [5]) | Plant response rating, Ryegrass, Italian (Italian ryegrass; [6]) | Plant response rating, Oat, Wild (wild oat; [4]) | Plant response rating, Oat, Wild (wild oat; [5]) | Plant response rating, Oat, Wild (wild oat; [6]) | Plant response rating, Windgrass (windgrass; [4]) | Plant response rating, Windgrass (windgrass; [5]) | Plant response rating, Windgrass (windgrass; [6]) | Barley, Winter plant response rating (winter barley; [7]) | Plant response rating, Barley, Winter (winter barley; [4]) | also measured |
| --- | --- | --- | --- | --- | --- | --- | --- | --- | --- | --- | --- | --- | --- | --- | --- | --- | --- | --- | --- | --- | --- |
| CCn1nc(C(C)(C)C)cc1C(=O)Nc1cccc(C(=O)NCC2CC2)c1 [Compound 62] | 10 | 0 | 10 | 40 | 30 | 0 | 50 | 50 | 40 | 40 | 20 | 20 | 50 | 40 | 30 | 50 | 40 | 30 |  |  | Barley, Winter plant response rating (winter barley; Postemergence, 250 g ai/ha, scale 0 to 100): 10; Plant response rating, Canarygrass (canarygrass; [2]): 0 |
| CCCCOc1cccc(NC(=O)c2cc(C(C)(C)C)nn2CC)c1 [Compound 137] | 20 |  | 10 | 40 | 30 | 20 | 50 | 50 | 30 | 40 | 40 | 20 | 40 | 40 | 20 | 50 | 50 | 30 | 30 | 20 | Canarygrass plant response rating (canarygrass; [7]): 40; Foxtail, Green plant response rating (green foxtail; [7]): 50; Ryegrass, Italian plant response rating (Italian ryegrass; [7]): 60; Oat, Wild plant response rating (wild oat; [7]): 50; Windgrass plant response rating (windgrass; [7]): 60 |
| CCOC(=O)c1cccc(NC(=O)c2cc(C3(C)CC3)nn2CC)c1 [Compound 295] | 35 | 35 | 35 | 35 | 35 | 30 | 60 | 50 | 45 | 65 | 40 | 40 | 50 | 50 | 50 | 65 | 60 | 50 |  | 35 | Plant response rating, Canarygrass (canarygrass; [2]): 25 |
| CCn1nc(C2(C)CC2)cc1C(=O)Nc1cc(C(=O)N2CC=CC2)ccc1F [Compound 301] | 30 |  | 30 | 50 | 45 | 35 | 60 | 45 | 40 | 45 | 45 | 35 | 75 | 65 | 45 | 35 | 35 | 35 | 40 | 30 | Canarygrass plant response rating (canarygrass; [7]): 50; Foxtail, Green plant response rating (green foxtail; [7]): 65; Ryegrass, Italian plant response rating (Italian ryegrass; [7]): 65; Oat, Wild plant response rating (wild oat; [7]): 60; Windgrass plant response rating (windgrass; [7]): 40 |
| CCn1nc(C(C)(C)C)cc1C(=O)Nc1cc(OC(F)(F)F)ccc1F [Compound 338] | 30 |  | 20 | 40 | 25 | 20 | 40 | 40 | 30 | 50 | 30 | 25 | 50 | 45 | 40 |  | 15 | 10 | 40 | 35 | Plant response rating, Canarygrass (canarygrass; [8]): 50; Plant response rating, Foxtail, Green (green foxtail; [8]): 50; Plant response rating, Ryegrass, Italian (Italian ryegrass; [8]): 60; Plant response rating, Oat, Wild (wild oat; [8]): 60 |
| CCn1nc(C(C)(C)C)cc1C(=O)Nc1cccc(OS(=O)(=O)CC)c1 [Compound 408] | 30 |  | 30 | 40 | 30 | 20 | 70 | 60 | 40 |  | 45 | 40 |  | 55 | 45 |  | 45 | 40 | 40 | 35 | Plant response rating, Canarygrass (canarygrass; [8]): 45; Plant response rating, Foxtail, Green (green foxtail; [8]): 80; Plant response rating, Ryegrass, Italian (Italian ryegrass; [8]): 70; Plant response rating, Oat, Wild (wild oat; [8]): 70; Plant response rating, Windgrass (windgrass; [8]): 65 |
